From ChEMBL document CHEMBL5385846, “Discovery and development of palmatine analogues as anti-NASH agents by activating farnesoid X receptor (FXR)” (Eur J Med Chem, 2023) come the findings set out here.

Structures are written as SMILES.

Test system in one data set: not listed separately
Nature of the data set: Cytotoxicity against human LX2 cells assessed as inhibition of cell growth.
Conditions: not given
Format: toxicity, cell-based, LX-2.
A word on the CC50: it is the concentration that lowers cell viability or growth by half. For the compound `COc1cc2c(cc1OC)-c1cc3ccc(OC)c(OCc4ccc(C(C)C)cc4)c3c[n+]1CC2`, the CC50 stood at 28.7 µM.
Take `COc1cc2c(cc1OC)-c1cc3ccc(OC)c(OCC4CCCC4)c3c[n+]1CC2`: the CC50 came out at 64 µM.
Still for that read-out and setting: the same measure for `COc1cc2c(cc1OC)-c1c(Cc3cccc(Br)c3)c3ccc(OC)c(OC)c3c[n+]1CC2`: 45.5 µM.
On the same count and under the same terms, the same measure for `COc1cc2c(cc1OC)-c1cc3ccc(OC)c(NCc4ccc(C)cc4)c3c[n+]1CC2`: 65.5 µM.
Regarding `COc1cc2c(cc1OC)-c1cc3ccc(OC)c(OCCc4ccc(C(F)(F)F)cc4)c3c[n+]1CC2`, the CC50 amounted to 88.9 µM.
As for `COc1cc2c(cc1OC)-c1c(Cc3ccccc3C)c3ccc(OC)c(OC)c3c[n+]1CC2`, the CC50 amounted to 45.6 µM.

In the next data set the target is Collagen alpha-1(I) chain (Homo sapiens) (UniProt P02452). Kind of data set: Inhibition of COL1A1 (unknown origin) expressed in human LX2 cells at 20 micromol/L incubated for 48 hrs by Bright-Glo luciferase assay relative to control. The settings on record: dose 20.0 µmol/L. Type of data set: cell-based.
Collagen alpha-1(I) chain (Homo sapiens), sequence (P02452 whole entry): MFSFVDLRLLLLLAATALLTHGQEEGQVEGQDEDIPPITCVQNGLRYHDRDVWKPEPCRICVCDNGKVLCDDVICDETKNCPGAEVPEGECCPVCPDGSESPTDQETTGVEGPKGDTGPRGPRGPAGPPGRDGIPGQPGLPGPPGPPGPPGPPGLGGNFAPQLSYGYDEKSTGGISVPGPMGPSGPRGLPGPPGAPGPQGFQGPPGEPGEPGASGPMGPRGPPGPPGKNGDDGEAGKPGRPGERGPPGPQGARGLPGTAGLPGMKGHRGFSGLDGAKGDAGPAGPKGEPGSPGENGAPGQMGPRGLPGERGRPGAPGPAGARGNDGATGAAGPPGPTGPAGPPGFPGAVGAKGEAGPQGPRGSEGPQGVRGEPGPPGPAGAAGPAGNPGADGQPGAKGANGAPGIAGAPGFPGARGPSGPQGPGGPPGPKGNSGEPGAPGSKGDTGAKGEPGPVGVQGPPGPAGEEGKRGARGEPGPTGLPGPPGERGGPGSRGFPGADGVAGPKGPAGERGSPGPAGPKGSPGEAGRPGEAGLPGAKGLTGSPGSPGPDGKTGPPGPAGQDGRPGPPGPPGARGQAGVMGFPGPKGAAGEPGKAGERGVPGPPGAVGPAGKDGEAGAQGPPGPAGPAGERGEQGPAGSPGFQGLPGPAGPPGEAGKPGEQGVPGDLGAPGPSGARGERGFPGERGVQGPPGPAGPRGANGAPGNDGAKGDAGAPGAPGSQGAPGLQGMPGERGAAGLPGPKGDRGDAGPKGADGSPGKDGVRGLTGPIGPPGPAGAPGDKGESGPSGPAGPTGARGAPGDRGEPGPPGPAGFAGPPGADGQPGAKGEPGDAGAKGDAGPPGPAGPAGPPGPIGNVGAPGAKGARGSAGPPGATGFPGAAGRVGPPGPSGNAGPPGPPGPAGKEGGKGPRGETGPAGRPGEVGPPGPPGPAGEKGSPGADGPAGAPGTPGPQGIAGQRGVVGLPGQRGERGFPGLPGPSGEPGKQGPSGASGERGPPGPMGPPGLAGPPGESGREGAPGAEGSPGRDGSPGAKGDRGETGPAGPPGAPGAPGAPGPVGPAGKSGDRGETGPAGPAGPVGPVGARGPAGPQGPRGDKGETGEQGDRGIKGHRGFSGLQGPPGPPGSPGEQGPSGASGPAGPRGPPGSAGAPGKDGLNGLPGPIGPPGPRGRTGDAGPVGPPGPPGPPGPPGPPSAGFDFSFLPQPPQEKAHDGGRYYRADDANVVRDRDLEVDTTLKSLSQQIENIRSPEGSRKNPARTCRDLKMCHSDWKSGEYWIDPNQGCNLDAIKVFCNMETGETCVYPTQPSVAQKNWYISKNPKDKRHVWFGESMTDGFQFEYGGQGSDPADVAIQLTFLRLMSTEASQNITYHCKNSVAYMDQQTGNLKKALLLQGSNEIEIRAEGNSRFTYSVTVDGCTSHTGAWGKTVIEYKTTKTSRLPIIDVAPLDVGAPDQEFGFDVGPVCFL
By inhibition is commonly meant the share of the control response that was lost under treatment. `COc1cccc(COc2c(OC)ccc3cc4[n+](cc23)CCc2cc(OC)c(OC)cc2-4)c1` displayed an inhibition of 21.4%.
Same read-out and setting: to `COc1cc2c(cc1OC)-c1cc3ccc(OC)c(OC(=O)c4ccoc4C)c3c[n+]1CC2` belongs 9.91%; to `COc1cc2c(cc1OC)-c1cc3ccc(OC)c(NCc4ccc(F)cc4)c3c[n+]1CC2`, 23.7%.
Turning to `CCCC(=O)Nc1c(OC)ccc2cc3[n+](cc12)CCc1cc(OC)c(OC)cc1-3`, the inhibition was 5.11%.
The same measure, in the same setting: to `COc1cc2c(cc1OC)-c1cc3ccc(OC)c(NC(=O)C4CCCCC4)c3c[n+]1CC2` belongs 3.33%; to `COc1cc2c(cc1OC)-c1cc3ccc(OC)c(OCc4ccc(C(C)C)cc4)c3c[n+]1CC2`, 75%.
The same measure, in the same setting: to `COc1cc2c(cc1OC)-c1cc3ccc(OC)c(OC(=O)c4ccco4)c3c[n+]1CC2` belongs 0%; to `COc1cc2c(cc1OC)-c1cc3ccc(OC)c(NC(=O)C4CCC4)c3c[n+]1CC2`, 18.9%; to `COc1cc2c(cc1OC)-c1cc3ccc(OC)c(OCC4CCCC4)c3c[n+]1CC2`, 46%.
Compound `COc1cc2c(cc1OC)-c1cc3ccc(OC)c(NC(=O)C4CCCC4)c3c[n+]1CC2` gave an inhibition of 10.8%.
Still for that read-out and setting: to `COc1cc2c(cc1OC)-c1cc3ccc(OC)c(OCc4ccccn4)c3c[n+]1CC2` belongs 15.2%; to `COc1cc2c(cc1OC)-c1c(Cc3ccc(C#N)cc3)c3ccc(OC)c(OC)c3c[n+]1CC2`, 16.3%; to `COC(=O)C(Oc1c(OC)ccc2cc3[n+](cc12)CCc1cc(OC)c(OC)cc1-3)c1ccccc1` (stereo not given), 23.4%.
As to `COc1ccc(C(=O)Nc2c(OC)ccc3cc4[n+](cc23)CCc2cc(OC)c(OC)cc2-4)cc1`, the inhibition was 2.39%.
Same read-out and setting: the same measure for `COc1cc2c(cc1OC)-c1cc3ccc(OC)c(OC(=O)C(=O)c4cccnc4)c3c[n+]1CC2`: 6.07%; for `CCC(=O)Nc1c(OC)ccc2cc3[n+](cc12)CCc1cc(OC)c(OC)cc1-3`: 0%.
Still for that read-out and setting: to `CCOc1cc2c(cc1OC)-c1cc3ccc(OC)c(NCc4ccc(F)cc4)c3c[n+]1CC2` belongs 24.8%; to `COc1cc2c(cc1OC)-c1cc3ccc(OC)c(NCc4ccc(Br)cc4)c3c[n+]1CC2`, 18.4%.
The compound `COc1cc2c(cc1OC)-c1c(Cc3ccc(C(C)C)cc3)c3ccc(OC)c(OC)c3c[n+]1CC2` returned an inhibition of 99.9%.
`COc1cc2c(cc1OC)-c1c(Cc3cccc(C)c3)c3ccc(OC)c(OC)c3c[n+]1CC2` gave an inhibition of 0%.
The same measure, in the same setting: to `COc1cc2c(cc1OC)-c1cc3ccc(OC)c(NC(=O)c4ccccc4)c3c[n+]1CC2` belongs 0%.
Still for that read-out and setting: to `COc1cc2c(cc1OC)-c1c(Cc3ccc(F)cc3)c3ccc(OC)c(OC)c3c[n+]1CC2` belongs 22.6%; to `COc1cc2c(cc1OC)-c1cc3ccc(OC)c(OCC4CCC4)c3c[n+]1CC2`, 9.25%.
On the same count and under the same terms, the same measure for `COc1cc2c(cc1OC)-c1cc3ccc(OC)c(NC(=O)c4cccc(F)c4)c3c[n+]1CC2`: 1.12%; for `COc1cc(Cc2c3[n+](cc4c(OC)c(OC)ccc24)CCc2cc(OC)c(OC)cc2-3)cc(OC)c1`: 39%.
In turn, `COc1cc2c(cc1OC)-c1cc3ccc(OC)c(OCc4ccc(C(F)(F)F)cc4)c3c[n+]1CC2` registered an inhibition of 38.7%.
On the same count and under the same terms, to `COc1cc2c(cc1OC)-c1cc3ccc(OC)c(OC(C)c4ccccc4)c3c[n+]1CC2` (stereo not given) belongs 22.1%; to `COc1cc2c(cc1OC)-c1cc3ccc(OC)c(OCC4CC4)c3c[n+]1CC2`, 14%; to `COc1cc2c(cc1OC)-c1cc3ccc(OC)c(OCc4ccc(C#N)cc4)c3c[n+]1CC2`, 5.2%.
Same read-out and setting: the same measure for `CCCCCCNc1c(OC)ccc2cc3[n+](cc12)CCc1cc(OC)c(OC)cc1-3`: 71.4%; for `CCOc1cc2c(cc1OC)-c1cc3ccc(OC)c(NCc4ccc(Br)cc4)c3c[n+]1CC2`: 8.92%; for `COc1ccc(CNc2c(OC)ccc3cc4[n+](cc23)CCc2cc(OC)c(OC)cc2-4)c(OC)c1`: 36%.
As to `CCCCCOc1c(OC)ccc2cc3[n+](cc12)CCc1cc(OC)c(OC)cc1-3`, the inhibition amounted to 36.7%.
The same measure, in the same setting: to `COC(=O)/C=C/c1ccc(Cc2c3[n+](cc4c(OC)c(OC)ccc24)CCc2cc(OC)c(OC)cc2-3)cc1` belongs 0%; to `COc1cc2c(cc1OC)-c1c(Cc3cccc(Br)c3)c3ccc(OC)c(OC)c3c[n+]1CC2`, 62.8%.
Still for that read-out and setting: to `CCCCCCCOc1c(OC)ccc2cc3[n+](cc12)CCc1cc(OC)c(OC)cc1-3` belongs 94.4%; to `COc1cc2c(cc1OC)-c1cc3ccc(OC)c(NCc4ccc(C)cc4)c3c[n+]1CC2`, 79.2%.
In turn, `CCCCCCCCC(=O)Nc1c(OC)ccc2cc3[n+](cc12)CCc1cc(OC)c(OC)cc1-3` gave an inhibition of 16.6%.
On the same count and under the same terms, the same measure for `CCCCCCCCCOc1c(OC)ccc2cc3[n+](cc12)CCc1cc(OC)c(OC)cc1-3`: 99.9%.
On the same count and under the same terms, to `COc1cc2c(cc1OC)-c1cc3ccc(OC)c(NCc4ccc(Cl)cc4)c3c[n+]1CC2` belongs 93.6%; to `COc1cc2c(cc1OC)-c1cc3ccc(OC)c(OCc4cc(C)cc(C)c4)c3c[n+]1CC2`, 25%.
Still for that read-out and setting: the same measure for `COc1cc2c(cc1OC)-c1cc3ccc(OC)c(OC(=O)Cc4ccc(C(F)(F)F)cc4)c3c[n+]1CC2`: 12.4%.
The compound `COc1cc2c(cc1OC)-c1cc3ccc(OC)c(OCCc4ccc(C(F)(F)F)cc4)c3c[n+]1CC2` showed an inhibition of 56.3%.
On the same count and under the same terms, the same measure for `CCOc1cc2c(cc1OC)-c1cc3ccc(OC)c(NCc4ccccc4)c3c[n+]1CC2`: 12.4%.
`CCOc1cc2c(cc1OC)-c1cc3ccc(OC)c(NCc4ccc(C)cc4)c3c[n+]1CC2` came in with an inhibition of 36%.
The same measure, in the same setting: to `CCCNc1c(OC)ccc2cc3[n+](cc12)CCc1cc(OC)c(OC)cc1-3` belongs 22.6%; to `COc1cc2c(cc1OC)-c1cc3ccc(OC)c(OCc4ccccc4C#N)c3c[n+]1CC2`, 23%.
On the same count and under the same terms, the same measure for `COc1cc2c(cc1OC)-c1cc3ccc(OC)c(NC(=O)c4cc(C)nn4C)c3c[n+]1CC2`: 0%.
The compound `COc1cc2c(cc1OC)-c1cc3ccc(OC)c(NCc4cccc(C#N)c4)c3c[n+]1CC2` had an inhibition of 10.5%.
`COc1cc2c(cc1OC)-c1c(Cc3cccc(C#N)c3)c3ccc(OC)c(OC)c3c[n+]1CC2` showed an inhibition of 4.38%.
On the same count and under the same terms, to `COc1cc2c(cc1OC)-c1cc3ccc(OC)c(OCc4ccc(C)cc4)c3c[n+]1CC2` belongs 25.6%; to `CCCCC(=O)Nc1c(OC)ccc2cc3[n+](cc12)CCc1cc(OC)c(OC)cc1-3`, 0%; to `O=C(O[C@@H]1Cc2c(O)cc(O)cc2O[C@@H]1c1cc(O)c(O)c(O)c1)c1cc(O)c(O)c(O)c1`, 27.6%.
Still for that read-out and setting: to `COc1cc2c(cc1OC)-c1c(Cc3ccccc3C)c3ccc(OC)c(OC)c3c[n+]1CC2` belongs 58.4%; to `COc1cc2c(cc1OC)-c1cc3ccc(OC)c(OCc4ccc(F)cc4)c3c[n+]1CC2`, 10.9%.
The same measure, in the same setting: to `COc1cc2c(cc1OC)-c1cc3ccc(OC)c(OCc4cccc(C#N)c4)c3c[n+]1CC2` belongs 24.1%; to `COc1cc2c(cc1OC)-c1cc3ccc(OC)c(OCc4ccc(Cl)cc4)c3c[n+]1CC2`, 28.9%.
Compound `COc1cc2c(cc1OC)-c1c(Cc3ccc(Br)cc3)c3ccc(OC)c(OC)c3c[n+]1CC2` came in with an inhibition of 85.7%.
On the same count and under the same terms, to `COc1ccc(COc2c(OC)ccc3cc4[n+](cc23)CCc2cc(OC)c(OC)cc2-4)cc1OC` belongs 12.6%; to `COc1cc2c(cc1OC)-c1c(Cc3cccc([N+](=O)[O-])c3)c3ccc(OC)c(OC)c3c[n+]1CC2`, 13%; to `COc1cc2c(cc1OC)-c1cc3ccc(OC)c(NCc4ccccc4)c3c[n+]1CC2`, 25.4%.
With `COc1cc2c(cc1OC)-c1c(Cc3ccccc3C#N)c3ccc(OC)c(OC)c3c[n+]1CC2`, the inhibition came out at 24.9%.
`COc1cc2c(cc1OC)-c1c(Cc3cccc(F)c3)c3ccc(OC)c(OC)c3c[n+]1CC2` showed an inhibition of 24.8%.

A further data set has as its system COL1A1. Kind of data set: Selectivity index, ratio of CC50 for cytotoxicity against human LX2 cells to IC50 for inhibition of COL1A1 (unknown origin) expressed in human LX2 cells. Type of data set: toxicity, cell-based. The settings on record: read-out: Ratio CC50/IC50.
Regarding `COc1cc2c(cc1OC)-c1cc3ccc(OC)c(OCc4ccc(C(C)C)cc4)c3c[n+]1CC2`, the selectivity ratio came to 3.66.
Take `COc1cc2c(cc1OC)-c1cc3ccc(OC)c(OCC4CCCC4)c3c[n+]1CC2`: the selectivity ratio worked out at 2.65.
Same read-out and setting: to `COc1cc2c(cc1OC)-c1c(Cc3cccc(Br)c3)c3ccc(OC)c(OC)c3c[n+]1CC2` belongs 3.06; to `COc1cc2c(cc1OC)-c1cc3ccc(OC)c(NCc4ccc(C)cc4)c3c[n+]1CC2`, 5.82; to `COc1cc2c(cc1OC)-c1cc3ccc(OC)c(OCCc4ccc(C(F)(F)F)cc4)c3c[n+]1CC2`, 6.05.
Take `COc1cc2c(cc1OC)-c1c(Cc3ccccc3C)c3ccc(OC)c(OC)c3c[n+]1CC2`: the selectivity ratio came out at 3.21.
